# Biological target: Metabotropic glutamate receptor 3 (Homo sapiens, UniProt Q14832)
# Assay: Positive allosteric modulation of human mGluR3 expressed in HEK293 cells assessed as increase in glutamate-induced calcium mobilization preincubated for 10 mins followed by glutamate addition and measured for 3 mins by Fluo4-AM dye based FLIPR assay
# Type: functional, cell-based
# Sequence of Metabotropic glutamate receptor 3 (Q14832 whole entry): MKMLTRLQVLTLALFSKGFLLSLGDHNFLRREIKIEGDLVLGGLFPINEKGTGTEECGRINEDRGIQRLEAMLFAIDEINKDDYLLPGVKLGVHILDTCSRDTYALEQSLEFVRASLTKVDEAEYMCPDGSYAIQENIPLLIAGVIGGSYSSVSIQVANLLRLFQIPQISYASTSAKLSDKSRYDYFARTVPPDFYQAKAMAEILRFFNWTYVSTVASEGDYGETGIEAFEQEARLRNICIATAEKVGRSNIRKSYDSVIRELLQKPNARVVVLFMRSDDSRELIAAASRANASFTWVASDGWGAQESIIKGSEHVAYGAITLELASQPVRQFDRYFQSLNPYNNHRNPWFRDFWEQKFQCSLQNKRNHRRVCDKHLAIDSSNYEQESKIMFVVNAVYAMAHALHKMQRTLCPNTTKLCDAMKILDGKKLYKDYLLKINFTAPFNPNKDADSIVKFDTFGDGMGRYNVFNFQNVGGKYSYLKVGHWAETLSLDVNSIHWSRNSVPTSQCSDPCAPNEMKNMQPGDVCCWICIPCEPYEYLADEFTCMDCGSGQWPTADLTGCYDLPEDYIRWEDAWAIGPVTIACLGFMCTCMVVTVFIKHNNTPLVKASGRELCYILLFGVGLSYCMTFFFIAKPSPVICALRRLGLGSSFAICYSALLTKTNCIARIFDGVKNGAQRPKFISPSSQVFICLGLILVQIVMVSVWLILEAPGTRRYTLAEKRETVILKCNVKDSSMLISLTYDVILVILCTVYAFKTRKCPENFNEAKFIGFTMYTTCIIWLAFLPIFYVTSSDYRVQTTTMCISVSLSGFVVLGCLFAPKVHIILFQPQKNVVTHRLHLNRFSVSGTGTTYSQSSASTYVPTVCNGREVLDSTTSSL
row,Structure (SMILES),EC50 [nM]
1,COc1ccc2c(n1)C(=O)N(C)Cc1ccc(-c3ccc(F)nc3)cc1-2,< 100
2,CN1C(=O)c2ncccc2-c2cc(-c3ccc(F)cn3)ccc2C12CC2,< 100
3,CN1C(=O)c2cccn2-c2cc(-c3ccc(F)nc3)ccc2C12CCC2,< 100
4,CCn1cc2c(n1)C(=O)N(C)Cc1ccc(-c3cccnc3C)cc1-2,100 to 1000

# The next lines start with the values.
row,EC50 [nM],Structure (SMILES)
1,< 100,CN1C(=O)c2ncccc2-c2cc(-c3ccc(F)nc3)ccc2C12CC2
2,< 100,COc1ccc2c(n1)C(=O)N(C)C1(CC1)c1ccc(-c3ccc(F)nc3)cc1-2
3,100 to 1000,COCn1cc2c(n1)C(=O)N(C)Cc1ccc(-c3ccc(F)cn3)cc1-2
4,< 100,COCn1cc2c(n1)C(=O)N(C)C1(CC1)c1ccc(-c3ccc(F)nc3)cc1-2
